The values that follow come from DBAASP.

Each structure is given as a SMILES string. In brackets after ≈: the same amount, converted by molar mass. Several values for one entry are separate records, joined by “and”; a condition that tells them apart may be missing. Identical values can stand only once. Bounds are passed on as bounds.

Common to all, as to assay: ≥ marks a high value that may be exact or a test limit, other limits are often not marked, values filed in µg/mL are converted to µM
Test [1] has as its system Staphylococcus aureus.
Test [2] deals with Escherichia coli UB1005.
Test [3] has as its system Pseudomonas aeruginosa.
The subject of test [4] is Escherichia coli 55B5.
For test [5], the system named is Salmonella typhimurium.
Test [6] relates to Bacillus licheniformis X39.
Test [7] deals with Psychrobacter faecalis X29.
The subject of test [8] is Rhodococcus rhodochrous X15.
Test [9] deals with Escherichia coli ATCC 25922.
Test [10] deals with Enterococcus faecalis 981.
Test [11] relates to Staphylococcus aureus ATCC 25923.
For test [12], the system named is Serratia rubidaea X01.
Test [13] deals with Staphylococcus carnosus KHS.
The subject of test [14] is Pseudomonas aeruginosa ATCC 27853.
Test [15] deals with Chaetomium globosum.
In test [16] the test system is Staphylococcus epidermidis ATCC 12228.
For test [17], the system named is Salmonella enterica subsp. enterica serovar Choleraesuis CMCC 50020.
In test [18] the test system is Pseudomonas aeruginosa Pa4216.
The subject of test [19] is Enterococcus faecium.
Test [20] relates to Staphylococcus aureus 08A875.
Test [21] has as its system Escherichia coli Ec513.
Test [22] concerns Escherichia coli O78.
Test [23] concerns Staphylococcus aureus 08A865.
For test [24], the system named is Acinetobacter baumannii Ab1408.
For test [25], the system named is Sphingobacterium siyangense.
The test system of test [26] is Staphylococcus aureus Sa1390.
Test [27] has as its system Bacillus cereus.
The subject of test [28] is Candida albicans ATCC 2002.
In test [29] the test system is Aspergillus terreus GIM 3.34.
In test [30] the test system is Pseudomonas aeruginosa Pa1409.
Test [31] concerns Staphylococcus aureus 08032706.
The subject of test [32] is Bacillus subtilis.
Test [33] has as its system Pseudomonas luteola.
The subject of test [34] is Staphylococcus aureus 08032712.
Test [35] deals with Salmonella enterica subsp. enterica serovar Enteritidis CMCC 50041.
Test [36] concerns Staphylococcus aureus ATCC 2592.
In test [37] the test system is Staphylococcus aureus 08032810.
The subject of test [38] is Saccharibacillus kuerlensis.
For test [39], the system named is Staphylococcus aureus 08031002.
Test [40] deals with Staphylococcus aureus 08031013.
Test [41] relates to Aspergillus nidulans.
Test [42] relates to Bacillus pumilus.
In test [43] the test system is Escherichia coli K88.
For test [44], the system named is Escherichia coli.
Test [45] has as its system Acinetobacter baumannii Ab5755.
Test [46] has as its system Salmonella enterica subsp. enterica serovar Typhi.
For test [47], the system named is Salmonella typhimurium CMCC 50013.
The test system of test [48] is Serratia marcescens SA.
Test [49] concerns Escherichia coli K-12.
Test [50] has as its system Acinetobacter baumannii Ab5753.
In test [51] the test system is Acinetobacter calcoaceticus.
For test [52], the system named is Serratia marcescens MA.

As usually defined, the MIC is the least concentration at which growth counts as inhibited. Consider `CC[C@H](C)[C@H](NC(=O)[C@H](C)N)C(=O)N[C@@H](Cc1cnc[nH]1)C(=O)N[C@@H](CC(N)=O)C(=O)N[C@@H](CC(C)C)C(=O)N[C@@H](C)C(=O)N[C@@H](Cc1cnc[nH]1)C(=O)N[C@@H](CCCCN)C(=O)N[C@@H](CC(C)C)C(=O)N[C@@H](CC(C)C)C(=O)N[C@@H](CCCCN)C(=O)N[C@@H](CCCCN)C(=O)N[C@@H](CC(C)C)C(=O)N[C@H](C(=O)N[C@@H](CCCN=C(N)N)C(=O)N[C@@H](C)C(=O)N[C@H](C(=O)N[C@@H](CCCCN)C(=O)N[C@@H](CCCCN)C(=O)N[C@@H](CC(C)C)C(=O)N[C@@H](C)C(=O)N[C@@H](CC(N)=O)C(=O)O)C(C)C)[C@@H](C)O` [AIHNLAHKLLKKLTRAVKKLAN], for which the MIC in [1] is 55 µM (≈ 136 µg/mL); in test [2] it was 2.1 µM (≈ 5.21 µg/mL); in test [3], 3 µM (≈ 7.44 µg/mL); in [4], 1.8 µM (≈ 4.47 µg/mL); in test [5] it was 4.8 µM (≈ 11.9 µg/mL).
As to `CC[C@H](C)[C@H](NC(=O)[C@H](CC(C)C)NC(=O)[C@@H](NC(=O)[C@@H]1CCCN1C(=O)[C@@H](NC(=O)[C@@H](NC(=O)[C@H](CC(N)=O)NC(=O)[C@H](CO)NC(=O)[C@H](C)NC(=O)[C@@H](NC(=O)[C@H](CC(N)=O)NC(=O)[C@H](CC(C)C)NC(=O)[C@H](CC(C)C)NC(=O)[C@@H](NC(=O)[C@H](CO)NC(=O)[C@H](CC(C)C)NC(=O)[C@@H](N)Cc1ccccc1)[C@@H](C)O)C(C)C)C(C)C)C(C)C)[C@@H](C)O)C(=O)N[C@H]1CSSC[C@@H](C(=O)O)NC(=O)[C@H](CCCCN)NC(=O)[C@H](CCCCN)NC(=O)[C@H]([C@@H](C)O)NC(=O)[C@H]([C@@H](C)CC)NC(=O)[C@H](CCCCN)NC1=O` [FLSTLLNVASNVVPTLICKITKKC], the MIC in test [6] is 9 µM (≈ 23.4 µg/mL); in test [7], 4.5 µM (≈ 11.7 µg/mL); in [8], 2.3 µM (≈ 5.99 µg/mL); in test [9], 150 µM (≈ 391 µg/mL); in [10] it was not below 75 µM; in [11] it was 19 µM (≈ 49.5 µg/mL). In addition, the MIC in test [12] was 9 µM (≈ 23.4 µg/mL); in test [13], 19 µM (≈ 49.5 µg/mL).
On to `CC[C@H](C)[C@H](NC(=O)[C@@H](NC(=O)[C@H](CCCN=C(N)N)NC(=O)[C@@H]1CCCN1C(=O)[C@H](CCCCN)NC(=O)[C@H](CCCCN)NC(=O)[C@H](Cc1ccccc1)NC(=O)[C@H](Cc1ccccc1)NC(=O)[C@H](CCC(=O)O)NC(=O)[C@H](CCCCN)NC(=O)[C@H](C)NC(=O)[C@H](CCCN=C(N)N)NC(=O)[C@H](CCCCN)NC(=O)[C@H](CCCCN)NC(=O)[C@@H](NC(=O)[C@H](CO)NC(=O)[C@H](CCCCN)NC(=O)[C@H](CCCCN)NC(=O)[C@H](CC(C)C)NC(=O)[C@H](CCCCN)NC(=O)[C@H](CCCN=C(N)N)NC(=O)[C@H](Cc1ccccc1)NC(=O)[C@H](Cc1ccccc1)NC(=O)[C@@H](N)CCCCN)C(C)C)C(C)C)C(=O)NCC(=O)N[C@H](C(=O)N[C@@H](CO)C(=O)N[C@H](C(=O)N1CCC[C@H]1C(=O)N[C@@H](Cc1ccccc1)C(=O)O)[C@@H](C)CC)C(C)C` [KFFRKLKKSVKKRAKEFFKKPRVIGVSIPF], for which the MIC in test [14] is 0.33 µM and > 0.165 µM; in test [15], 10.3 µM (≈ 37.5 µg/mL); in test [16], 2.2 µM (≈ 8 µg/mL); in [17], 0.55 µM (≈ 2 µg/mL); in test [18], 1.1 µM (≈ 4 µg/mL); in test [19], not below 41.2 µM. Also, the MIC in [20] is 20.6 µM (≈ 75 µg/mL); in test [21], 2.2 µM (≈ 8 µg/mL); in [3], 3.64 µM (≈ 13.3 µg/mL); in [9] it was 0.632 µM (≈ 2.3 µg/mL); in [22] it was 4.4 µM (≈ 16 µg/mL); in test [23], not below 110 µM. For the same molecule, the MIC in test [11] was 1.1 µM (≈ 4 µg/mL); in test [24], 4.4 µM (≈ 16 µg/mL); in [25] it was 2.58 µM (≈ 9.4 µg/mL); in test [26] it was not below 35.2 µM; in test [27], 0.33 µM (≈ 1.2 µg/mL); in [28] it was 1.29 µM and 0.66 µM. Moreover, the MIC came out at 5.14 µM (≈ 18.7 µg/mL) in test [29]; 2.2 µM (≈ 8 µg/mL) in [30]; 27.5 µM (≈ 100 µg/mL) in [31]; 2.58 µM (≈ 9.4 µg/mL) in [32]; 0.33 µM (≈ 1.2 µg/mL) in [33]; 27.5 µM (≈ 100 µg/mL) in [34]. Also, the MIC in test [35] was 1.1 µM (≈ 4 µg/mL); in [36], 1.29 µM and 0.66 µM; in [37] it was 27.5 µM (≈ 100 µg/mL); in test [38], 1.29 µM (≈ 4.7 µg/mL); in [39] it was 27.5 µM (≈ 100 µg/mL); in test [40], 27.5 µM (≈ 100 µg/mL). Moreover, the MIC in test [41] is 5.14 µM (≈ 18.7 µg/mL); in test [42], 2.58 µM (≈ 9.4 µg/mL); in test [43], 1.1 µM (≈ 4 µg/mL); in test [44], 0.323 µM (≈ 1.17 µg/mL); in test [45] it was 1.1 µM (≈ 4 µg/mL); in test [46], 0.33 µM (≈ 1.2 µg/mL). For the same molecule, the MIC in [47] is 1.1 µM (≈ 4 µg/mL); in test [48], not below 110 µM; in test [49], 0.275 µM (≈ 1 µg/mL); in test [50], 4.4 µM (≈ 16 µg/mL); in test [51], 0.632 µM (≈ 2.3 µg/mL); in test [52], not below 110 µM.
